Laboratory results: PubChem BioAssay (NCI)
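Grown in 96-well plates, cells were treated for 48 hours with each compound at five concentrations. Insufficient inhibition: endpoint recorded as highest concentration tested. GI50 marks 50% less growth. TGI: total growth inhibition.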

Experiments:
Assay in all cases: NCI tumour cell line growth inhibition, 48 h
[1] = tested on: 786-0 renal
[2] = tested on: A549 NSCLC
[3] = tested on: ACHN renal
[4] = tested on: BT-549 breast
[5] = tested on: CAKI-1 renal
[6] = tested on: CCRF-CEM leukemia
[7] = tested on: COLO 205 colon
[8] = tested on: DU-145 prostate
[9] = tested on: EKVX NSCLC
[10] = tested on: HCC-2998 colon
[11] = tested on: HCT-116 colon
[12] = tested on: HCT-15 colon
[13] = tested on: HOP-62 NSCLC
[14] = tested on: HOP-92 NSCLC
[15] = tested on: HS 578T breast
[16] = tested on: HT29 colon
[17] = tested on: IGROV1 ovarian
[18] = tested on: KM12 colon
[19] = tested on: LOX IMVI melanoma
[20] = tested on: M14 melanoma
[21] = tested on: MCF7 breast
[22] = tested on: MDA-MB-231 breast
[23] = tested on: MDA-MB-435
[24] = tested on: MOLT-4 leukemia
[25] = tested on: NCI-H23 lung
[26] = tested on: NCI-H460 lung
[27] = tested on: NCI-H522 lung
[28] = tested on: NCI/ADR-RES ovarian
[29] = tested on: OVCAR-3 ovarian
[30] = tested on: OVCAR-4 ovarian
[31] = tested on: OVCAR-5 ovarian
[32] = tested on: PC-3 prostate
[33] = tested on: RPMI-8226 leukemia
[34] = tested on: SF-268 CNS
[35] = tested on: SF-295 CNS
[36] = tested on: SF-539 CNS
[37] = tested on: SK-MEL-2 melanoma
[38] = tested on: SK-MEL-28 melanoma
[39] = tested on: SK-MEL-5 melanoma
[40] = tested on: SK-OV-3 ovarian
[41] = tested on: SN12C renal
[42] = tested on: SNB-19 CNS
[43] = tested on: SNB-75 CNS
[44] = tested on: SW-620 colon
[45] = tested on: T-47D breast
[46] = tested on: TK-10 renal
[47] = tested on: U251 CNS
[48] = tested on: UACC-62 melanoma
[49] = tested on: UO-31 renal
[50] = tested on: A498 renal
[51] = tested on: NCI-H226 lung
[52] = tested on: OVCAR-8 ovarian
[53] = tested on: RXF 393 renal
[54] = tested on: UACC-257 melanoma

With `COc1ccc(-c2cc(-c3cc(Cl)ccc3Cl)nc3nc(=S)[nH]c(N)c23)cc1` the GI50 [1] was 20.1 µM, the TGI [1] was 37.4 µM and the GI50 [2] was 15.2 µM. It also gave a TGI [2] of 41.8 µM, a GI50 [3] of 27.1 µM and a TGI [3] of 98.4 µM. The GI50 [4] was 54.9 µM, the TGI [4] was > 100 µM and the GI50 [5] was 10.6 µM. The TGI [5] was 62.1 µM, the GI50 [6] was 26.6 µM and the TGI [6] was > 100 µM. The GI50 [7] was 85.7 µM, the TGI [7] was > 100 µM and the GI50 [8] was 48.8 µM. For the same molecule, the TGI [8] was > 100 µM, the GI50 [9] was 28.5 µM and the TGI [9] was > 100 µM. The GI50 [10] was 23.1 µM, the TGI [10] was 40.1 µM and the GI50 [11] was 15.1 µM. The TGI [11] was 28.4 µM, the GI50 [12] was 17.5 µM and the TGI [12] was > 100 µM. For the same molecule, the GI50 [13] was 14.9 µM, the TGI [13] was 28.3 µM and the GI50 [14] was 11.8 µM. For the same molecule, the TGI [14] was > 100 µM, the GI50 [15] was 14.6 µM and the TGI [15] was 74.8 µM. For the same molecule, the GI50 [16] was 37.8 µM, the TGI [16] was > 100 µM and the GI50 [17] was 9.34 µM. The TGI [17] was > 100 µM, the GI50 [18] was 26.8 µM and the TGI [18] was > 100 µM. For the same molecule, the GI50 [19] was 14.2 µM, the TGI [19] was 44.4 µM and the GI50 [20] was 24 µM. For the same molecule, the TGI [20] was 45 µM, the GI50 [21] was 20.1 µM and the TGI [21] was > 100 µM. For the same molecule, the GI50 [22] was 3.62 µM, the TGI [22] was 19.8 µM and the GI50 [23] was 3.93 µM. The TGI [23] was 17.6 µM, the GI50 [24] was 6.36 µM and the TGI [24] was > 100 µM. It also gave a GI50 [25] of 22.1 µM, a TGI [25] of 48.4 µM and a GI50 [26] of 47.6 µM. The TGI [26] was > 100 µM, the GI50 [27] was 28.2 µM and the TGI [27] was > 100 µM. The GI50 [28] was 20.1 µM, the TGI [28] was 45.2 µM and the GI50 [29] was 45.1 µM. For the same molecule, the TGI [29] was > 100 µM, the GI50 [30] was > 100 µM and the TGI [30] was > 100 µM. The GI50 [31] was 20.1 µM, the TGI [31] was 51.4 µM and the GI50 [32] was 24.8 µM. The TGI [32] was > 100 µM, the GI50 [33] was 14.3 µM and the TGI [33] was > 100 µM. The GI50 [34] was 57.7 µM, the TGI [34] was > 100 µM and the GI50 [35] was 17.1 µM. The TGI [35] was 46.5 µM, the GI50 [36] was 27 µM and the TGI [36] was 82.9 µM. For the same molecule, the GI50 [37] was 81.7 µM, the TGI [37] was > 100 µM and the GI50 [38] was 99.3 µM. The TGI [38] was > 100 µM, the GI50 [39] was 18.2 µM and the TGI [39] was 94.6 µM. For the same molecule, the GI50 [40] was 47.2 µM, the TGI [40] was > 100 µM and the GI50 [41] was 19.1 µM. For the same molecule, the TGI [41] was 65.7 µM, the GI50 [42] was 58.1 µM and the TGI [42] was > 100 µM. For the same molecule, the GI50 [43] was 82.7 µM, the TGI [43] was > 100 µM and the GI50 [44] was 38.7 µM. For the same molecule, the TGI [44] was > 100 µM, the GI50 [45] was > 100 µM and the TGI [45] was > 100 µM. For the same molecule, the GI50 [46] was 7.35 µM, the TGI [46] was 38.5 µM and the GI50 [47] was 22.1 µM. The TGI [47] was 72.1 µM, the GI50 [48] was 6.94 µM and the TGI [48] was > 100 µM. For the same molecule, the GI50 [49] was 58.1 µM and the TGI [49] was > 100 µM.
For `O=C1c2ccccc2-c2c1c1ccccc1c(=O)n2CCNCCCNCCn1c2c(c3ccccc3c1=O)C(=O)c1ccccc1-2`, the GI50 [1] was 0.0539 µM, the TGI [1] was 0.326 µM and the GI50 [50] was 0.432 µM. The TGI [50] was 3.33 µM, the GI50 [2] was 0.0521 µM and the TGI [2] was 0.662 µM. For the same molecule, the GI50 [3] was 0.00672 µM, the TGI [3] was 0.699 µM and the GI50 [4] was 0.629 µM. For the same molecule, the TGI [4] was 1.9 µM, the GI50 [5] was 0.563 µM and the TGI [5] was 1.24 µM. The GI50 [6] was < 0.005 µM, the TGI [6] was 1.43 µM and the GI50 [7] was 0.637 µM. The TGI [7] was 1.59 µM, the GI50 [8] was 0.0736 µM and the TGI [8] was 0.739 µM. For the same molecule, the GI50 [9] was 1.07 µM, the TGI [9] was 3.07 µM and the GI50 [11] was < 0.005 µM. For the same molecule, the TGI [11] was 0.262 µM, the GI50 [12] was 0.0221 µM and the TGI [12] was 0.334 µM. For the same molecule, the GI50 [13] was 0.0723 µM, the TGI [13] was 1.16 µM and the GI50 [15] was 0.738 µM. The TGI [15] was 2.74 µM, the GI50 [16] was 0.051 µM and the GI50 [17] was 1.19 µM. The TGI [17] was > 50 µM, the GI50 [18] was 0.0193 µM and the GI50 [19] was 0.0461 µM. It also gave a TGI [19] of 0.331 µM, a GI50 [20] of 0.257 µM and a TGI [20] of 0.536 µM. The GI50 [21] was 0.0885 µM, the GI50 [22] was 0.161 µM and the TGI [22] was 0.548 µM. The GI50 [23] was 0.115 µM, the TGI [23] was 1.1 µM and the GI50 [24] was < 0.005 µM. The TGI [24] was > 50 µM, the GI50 [51] was 0.64 µM and the TGI [51] was 1.66 µM. For the same molecule, the GI50 [25] was 0.249 µM, the TGI [25] was 1.13 µM and the GI50 [26] was < 0.005 µM. The TGI [26] was > 50 µM, the GI50 [27] was 2.91 µM and the TGI [27] was 14.1 µM. The GI50 [29] was 0.362 µM, the TGI [29] was 1.12 µM and the GI50 [31] was 0.42 µM. For the same molecule, the TGI [31] was 1.1 µM, the GI50 [52] was 0.0101 µM and the TGI [52] was 0.361 µM. The GI50 [32] was 0.293 µM, the TGI [32] was 1.24 µM and the GI50 [33] was 0.00933 µM. The TGI [33] was 0.259 µM, the GI50 [53] was < 0.005 µM and the TGI [53] was 0.577 µM. It also gave a GI50 [34] of 0.156 µM, a TGI [34] of 6.81 µM and a GI50 [35] of 0.00771 µM. The TGI [35] was 0.368 µM, the GI50 [36] was 0.0848 µM and the TGI [36] was 1.36 µM. The GI50 [37] was 0.514 µM, the TGI [37] was 2.2 µM and the GI50 [38] was 0.0667 µM. The TGI [38] was > 50 µM, the GI50 [39] was 1.75 µM and the TGI [39] was 7.9 µM. It also gave a GI50 [40] of 1.21 µM, a TGI [40] of 4.83 µM and a GI50 [41] of 0.011 µM. For the same molecule, the TGI [41] was 0.436 µM, the GI50 [42] was 0.389 µM and the TGI [42] was > 50 µM. The GI50 [44] was < 0.005 µM, the TGI [44] was 0.58 µM and the GI50 [45] was 0.719 µM. The TGI [45] was 2.12 µM, the GI50 [47] was 0.146 µM and the TGI [47] was 0.371 µM. It also gave a GI50 [54] of 1.17 µM, a TGI [54] of 2.91 µM and a GI50 [48] of 0.362 µM. The TGI [48] was 1.16 µM, the GI50 [49] was 0.221 µM and the TGI [49] was 1 µM.
